“Also recorded” adds a separate entry of the source. Read-outs that look alike come from different tables or passages of the source.
Columns and labels:
[1] = tested on: MDA-MB-231 breast cancer cells; assay: MTT cytotoxicity assay, MDA-MB-231; type: cell-based; details: Homo sapiens, read-out: IC50 MDA-MB-231 (Breast)
Method: (§1) The synthesized derivatives were screened for their cytotoxic activities against five cancer cell lines (two breast cancer cell lines: MCF-7 and MDA-MB-231, two ovarian cancer cell lines: A2780 and KF-28, and one cervical cancer cell line: Hela). This study was performed using serial concentrations of 25, 50, 100, 150, and 200 µM of each compound using the MTT assay. Percentages of cell viability of the tested compounds with serial concentration against the tested panel of cell lines are depicted in Figure 1, in which there is a decrease in the cell viability with increasing concentrations in a dose–response pattern. […] Therefore, compounds 5a, 5b, and 5f were thought worthwhile to further investigate their effects as either cytotoxic or antiproliferative effects and whether any of them is an inducer of apoptotic cell death in the representative cancer cell lines KF-28 and A2780.
(§2) The human ovarian serous carcinoma cell line KF-28 was kindly provided by Prof. Yoshihiro Kikuchi (Department of Obstetrics and Gynecology, National Defense Medical College, Saitama, Japan), and A2780 cell line was purchased from the ECACC (ECACC 93112519). The cells were maintained in RPMI-1640 (Sigma-Aldrich, United States). The cervical cancer cell line, Hela cells, breast cancer cell line, MCF-7, and MDA-MB-231 were purchased from the ATCC and cultured in DMEM. Both types of media were supplemented with 2 mM L-glutamine (Lonza, Belgium), 10% FBS (Sigma, St. Louis, MO, United States), and 1% penicillin/streptomycin (Lonza, Belgium). All cells were incubated at 37°C in 5% CO2 atmosphere (NuAire). All cancer cell lines were cultured according to the routine tissue culture work as discussed by the Freshney group ([Freshney, 2010]). The cells were plated at a density of 5,000 cells in triplicates in a 96-well plate. On the next day, the cells were treated with the indicated compound(s) at the indicated concentrations in a final volume of 100 μL media. Cell viability was assessed after 72 h using MTT solution (Promega) ([Mosmann, 1983]). 20 μL of the reagent was added to each well, the plate was incubated for 3 h, […] was subsequently measured (570 nm) using a plate reader, and then the IC50 values were calculated using Excel ([Tantawy et al., 2020]).

C-myc in KF-28 cells = assay: Western blot of C-myc expression; type: cell-based, human; details: two days, vs DMSO
From the text: Pim-1 has been classified as a weak oncogene. However, a very strong synergism with regard to tumorigenicity occurs between Pim-1 and C-myc. This synergism is observed with bitransgenic mice overexpressing C-myc and Pim-1 in lymphoid tissue ([Möröy et al., 1991]). To further validate the simulation and docking data which introduced Pim-1 kinase as a potential target molecule for some of the tested compounds, we decided to check the effect of treatment with the selected compounds on the C-myc protein expression as a downstream target molecule known to be phosphorylated and stabilized by Pim-1 as a kinase ([Zhang et al., 2008]). […] Taking into consideration the fact that Pim-1 phosphorylates C-myc and controls its stability ([Zhang et al., 2008]) may conclude that the reduction of C-myc expression under the indicated compounds is due to the inhibition of Pim-1 activity (Figure 3). Therefore, the speculated inhibition of Pim-1 is supported by the above-mentioned qPCR data (Figure 3) and further supported by C-myc downregulation. Our results agree with the reported one which states that some thiazole derivatives are potent inhibitors against protein kinases including Pim-1 kinase ([Mohareb et al., 2019]).
Cell lysates were prepared by lysing cells in RIPA buffer (10 mM Tris (pH 7.4), 150 mM NaCl, 1% Triton X-100, 1% Na deoxycholate), supplemented with protease inhibitor cocktail (Sigma). Protein concentration of whole cell lysates was determined by the […] using the BSA kit (Pierce), and then equal protein amounts were heated to 95 °C for 5 min with sodium dodecyl sulfate (SDS) sample buffer (25 ml glycerol, 31.2 ml Tris buffer, 7.5 ml SDS, a dash of bromophenol blue/100 ml) and run on 15% SDS polyacrylamide gel electrophoresis (SDS-PAGE). Protein samples were then blotted onto PVDF membranes (Immobilon P, Watford, United Kingdom). The membranes were incubated in blocking solution (5% non-fat milk in PBS) for 1 h and then in primary antibody (anti-human C-myc pAb (Abcam; at dilution of 2:1,000) or GAPDH mAb (Santa Cruz; at dilution of 20:1,000)) overnight. After 3 × 10 min washes in TBS (0.1% Tween-20 in PBS), the membrane was incubated for 1 h at room temperature with horseradish-peroxidase–linked (HRP) secondary anti-rabbit or anti-mouse Ab (1:1,000 dilution in PBS). Signals on the membrane were developed using ECL reagent (Amersham, CA, United States) and then were imaged with the Chemidoc system (Bio-Rad, United States).

[2] = tested on: MEF normal mouse embryonic fibroblast; assay: MTT cytotoxicity assay, MEF; type: cell-based; details: n = 3
[3] = tested on: Hela cervical cancer cells; assay: MTT cytotoxicity assay, Hela; type: cell-based; details: Homo sapiens, 72 h
Method: as §1, §2

KF-28 cells [4] = assay: DNA content and cell cycle analysis (PI, flow cytometry); type: cell-based, human; details: 200 µM, 48 h
Method: Studying the cell cycle phases by measuring DNA content is a crucial test that helps in evaluating the impact of a given drug(s) on dividing cells and may reflect the mechanism through which this drug(s) affects those cells. […] Compounds 5a, 5b, 5c, 5f, 5g, and 9 were added to similar numbers of cells at 200 µM for 48 h, and then, the different cell cycle phases were assessed by flow cytometric analysis.
(§3) The cells were seeded into six-well culture plates (3–5 × 10^5 cells/well) and incubated overnight at 37°C, under 5% CO2. The cells were then treated with indicated compounds for 48 h. Next, media supernatants and the cells were collected and washed with ice-cold PBS. Next, the cells were stained with PI (10 mg/ml) for 30 min and analyzed for DNA contents using flow cytometry analysis using an FL2 (λex/em 535/617 nm) signal detector (ACEA Novocyte™ flow cytometer, ACEA Biosciences, Inc., San Diego, CA, United States). For each sample, 12,000 events are acquired. Cell cycle distribution is calculated using a CytoFLex machine and analyzed by CytExpert software. Flow cytometric methodologies (annexin V/PI staining with cell cycle analyses) are carried out as previously described ([Nafie et al., 2020a]; [Nafie et al., 2020b]; [Gad et al., 2020]).

[5] = tested on: MCF-7 breast cancer cells; assay: MTT cytotoxicity assay, MCF-7; type: cell-based, human; details: read-out: IC50 MCF-7 (Breast)
Method: as §1, §2

KF-28 cells [6] = assay: Annexin V-FITC/PI apoptosis assessment; type: cell-based, human; details: 48 h, cisplatin 10 μM, DMSO control 0.45%
Method: Therefore, we decided to use such technique to investigate if the cytotoxic effect of the compounds indicated by MTT and the cell cycle experiments is apoptotic cell death or not. For that purpose, two cell lines, KF-28 and A2780, were stained by annexin V/PI after treatment with different compounds vs. DMSO for two days in parallel with cisplatin as a reference drug. Results from annexin staining analysis show appreciated annexin V–stained populations when cells are treated with compounds 5a–c, 5f, and 9. […] Similar results were obtained from the other cell line, A2780, treated with the same compounds (Figure 2B).
as §3

[7] = tested on: KF-28 ovarian cancer cells; assay: MTT cytotoxicity assay, KF-28; type: cell-based, human; details: 72 h, read-out: IC50 KF-28 (Ovarian)
Method: as §1, §2

[8] = tested on: A2780 ovarian cancer cells; assay: MTT cytotoxicity assay, A2780; type: cell-based, human; details: read-out: IC50 A2780 (Ovarian)
Method: as §1, §2

[9] = MTT, n = 3, read-out: IC50 Hela (Cervical)
[10] = Homo sapiens, MCF7, MTT, 72 h, n = 3
[11] = Homo sapiens, A2780, MTT, 72 h, n = 3

In the case of `c1ccc2oc(-c3csc(=NN=C4CCC(=NN=c5[nH]c(-c6cc7ccccc7o6)cs5)CC4)[nH]3)cc2c1` [13b, 1,4-Bis((4-(2-benzofuryl)thiazol-2-ylidene)hydrazono)cyclohexane], the melting point is reported as 269 to 270 °C.
`CC(=O)c1sc(=NN=C2CCC(=NN=c3[nH]c(C)c(C(C)=O)s3)CC2)[nH]c1C` [compound 11, 1,4-Bis((5-acetyl-4-methylthiazol-2-ylidene)hydrazono)cyclohexane] gave a melting point of 280 to 281 °C.
With `Cc1[nH]c(=NN=C2CCC(=NN=c3[nH]c(C)c(N=Nc4ccc(Cl)cc4)s3)CC2)sc1N=Nc1ccc(Cl)cc1` [5c, 1,4-Bis((5-(4-chlorophenylazo)-4-methylthiazol-2-ylidene)hydrazono)cyclohexane] the IC50 ([1]; MDA-MB-231, MTT, 72 h, n = 3) was 116 µM, the “C-myc protein expression (Western blot)” value (C-myc in KF-28 cells) was “observable downregulation; also recorded: Appreciated downregulation” and the IC50 [2] was greater than 200 µM. The IC50 [3, 9] was less than 25 µM.
For `O=C1CSC(=NN=C2CCC(=NN=C3NC(=O)CS3)CC2)N1` [compound 9, 1,4-Bis((4-oxo-thiazolidin-2-ylidene)hydrazono)cyclohexane], the “Cell cycle phase S population” value (KF-28 cells [4]) was 6.5%, the “Cell cycle phase G1 population” value (KF-28 cells [4]; DMSO control 72%) was 78% and the IC50 ([1]; MDA-MB-231, MTT, 72 h, n = 3) was greater than 200 µM. For the same compound, the IC50 [5, 10] was greater than 200 µM, the IC50 [2] was 1.06 µM and the IC50 [3, 9] was 111 µM. The “Total apoptotic cell death (annexin V-positive cells)” value (KF-28 cells [6]) was “did not induce appreciated apoptosis”, the IC50 ([7]; Homo sapiens, MTT, n = 3) was 86.5 µM and the IC50 [8, 11] was 103 µM.
With `N.N.[Cl][Pt][Cl]` [Cisplatin, cisplatin, reference compound] the IC50 ([5]; MTT, 72 h, n = 3) was 1.21 µM, the “Total apoptotic cell death (annexin V-positive cells)” value (KF-28 cells [6]) was 25% and the IC50 ([7]; MTT, n = 3) was 9.29 µM. It also gave an IC50 ([8]; MTT, 72 h, n = 3) of 1.56 µM.
With `O=C1NC(=NN=C2CCC(=NN=C3NC(=O)C(=Cc4ccccc4)S3)CC2)SC1=Cc1ccccc1` [14a, 1,4-Bis((5-benzylidene-4-oxo-thiazolidin-2-ylidene)hydrazono)cyclohexane] the melting point was greater than 300 °C.
With `Cc1[nH]c(=NN=C2CCC(=NN=c3[nH]c(C)c(N=Nc4ccc([N+](=O)[O-])cc4)s3)CC2)sc1N=Nc1ccc([N+](=O)[O-])cc1` [5d, 1,4-Bis((5-(4-nitrophenylazo)-4-methylthiazol-2-ylidene)hydrazono)cyclohexane] the IC50 ([1]; MDA-MB-231, 72 h) was greater than 200 µM, the IC50 ([5]; Homo sapiens, MCF7, 72 h) was greater than 200 µM and the melting point was greater than 300 °C. The IC50 ([3]; read-out: IC50 Hela (Cervical)) was greater than 200 µM, the IC50 ([7]; Homo sapiens) was greater than 200 µM and the IC50 ([8]; Homo sapiens, A2780, 72 h) was greater than 200 µM.
With `Clc1ccc(-c2csc(=NN=C3CCC(=NN=c4[nH]c(-c5ccc(Cl)cc5)cs4)CC3)[nH]2)cc1` [13d, 1,4-Bis((4-(4-chlorophenyl)thiazol-2-ylidene)hydrazono)cyclohexane] the IC50 [5, 10] was greater than 200 µM, the melting point was 230 to 231 °C and the IC50 [3, 9] was greater than 200 µM.
`O=C1NC(=NN=C2CCC(=NN=C3NC(=O)C(=Cc4ccc(Br)cc4)S3)CC2)SC1=Cc1ccc(Br)cc1` [14d, 1,4-Bis((5-(4-bromobenzylidene)-4-oxo-thiazolidin-2-ylidene)hydrazono)cyclohexane] showed a melting point of 290 to 291 °C.
In the case of `O=c1oc2ccccc2cc1-c1csc(=NN=C2CCC(=NN=c3[nH]c(-c4cc5ccccc5oc4=O)cs3)CC2)[nH]1` [13c, 1,4-Bis((4-(3-coumarinyl)thiazol-2-ylidene)hydrazono)cyclohexane], the IC50 [5, 10] is reported as 178 µM, the melting point is reported as 241 to 242 °C and the IC50 [3, 9] is reported as greater than 200 µM. The IC50 ([7]; Homo sapiens, MTT, n = 3) was 85.7 µM and the IC50 [8, 11] was 33.5 µM.
For `O=C1NC(=NN=C2CCC(=NN=C3NC(=O)C(=Cc4ccc(Cl)cc4)S3)CC2)SC1=Cc1ccc(Cl)cc1` [14c, 1,4-Bis((5-(4-chlorobenzylidene)-4-oxo-thiazolidin-2-ylidene)hydrazono)cyclohexane], the melting point was greater than 300 °C.
Compound `c1ccc2sc(-c3csc(=NN=C4CCC(=NN=c5[nH]c(-c6nc7ccccc7s6)cs5)CC4)[nH]3)nc2c1` [13a, 1,4-Bis((4-(2-benzothiazolyl)thiazol-2-ylidene)hydrazono)cyclohexane] has an IC50 ([1]; MDA-MB-231, MTT, 72 h, n = 3) greater than 200 µM, an IC50 [5, 10] greater than 200 µM and a melting point greater than 300 °C. It also gave an IC50 [3, 9] greater than 200 µM, an IC50 ([7]; Homo sapiens, MTT, n = 3) greater than 200 µM and an IC50 [8, 11] of 27.2 µM.
In the case of `Cc1ccc(C=C2SC(=NN=C3CCC(=NN=C4NC(=O)C(=Cc5ccc(C)cc5)S4)CC3)NC2=O)cc1` [14b, 1,4-Bis((5-(4-methylbenzylidene)-4-oxo-thiazolidin-2-ylidene)hydrazono)cyclohexane], the melting point is reported as 269 to 270 °C.
With `Cc1ccccc1N=Nc1sc(=NN=C2CCC(=NN=c3[nH]c(C)c(N=Nc4ccccc4C)s3)CC2)[nH]c1C` [5e, 1,4-Bis((5-(2-tolylazo)-4-methylthiazol-2-ylidene)hydrazono)cyclohexane] the IC50 ([1]; MDA-MB-231, MTT, 72 h, n = 3) was greater than 200 µM, the IC50 [5, 10] was less than 25 µM and the IC50 [3, 9] was greater than 200 µM. The IC50 ([7]; Homo sapiens, MTT, n = 3) was greater than 200 µM and the IC50 [8, 11] was 70.6 µM.
